Laboratory results reported in patent publication US9079891B2, “Compounds that modulate intracellular calcium” (CALCIMEDICA, INC., priority 2010, dated 2015).
Read-outs that look alike come from different tables or passages of the source.

What was measured:
[1] = system: secreted IL-2 in Jurkat T cells; test: In vitro assay of cytokine (IL-2) release from T cells; format: cell-based; conditions: Jurkat E6-1 cells, PHA/TPA stimulation 20 hours, IL-2 ELISA
Experimental: In Vitro Assay of Cytokine Release from T Cells
Jurkat E6-1 cells are obtained from ATCC and maintained in complete medium with 10% FBS at 37° C./6% CO2.
The day prior to performing the assay, Jurkat T cells are plated in 90 μL of HBSS Buffer with 1.8 mM CaCl2 and 1.75% fetal bovine serum (FBS) in a 96 well plate at a density of 1.5×10^5 cells/well for 3 hours. 10 μl of 10× test compound prepared in HBSS is added and incubated for 10 minutes at 37° C./6% CO2. Cells are stimulated by the addition of 10 μl of 11×PHA/TPA (27.5 μg/mL PHA/880 nM TPA) and incubated at 37° C./6% CO2 for 20 hours. On the following day, the supernatants are collected and assayed for IL-2 levels by ELISA according to the manufacturer's protocols. The IC50 value is calculated as the concentration at which 50% of secreted IL-2 in vehicle treated cells is inhibited.

[2] = biological target: T1, recombinant human STIM1 and Orai1 (Homo sapiens, UniProt Q96D31); test: Fluorescence-based assay of store-operated calcium entry in Orai1/STIM1 stable cells (FLIPR); format: cell-based; conditions: HEK-293 cells stably expressing human Orai1/STIM1; Fluo-4; Peak-Basal signal; read-out: FLIPR_CRAC: 9 point CRC: O1S1_JR251: IC50: Peak_over_Basal
T1 construct: c-myc (C); expressed in transfected cells; host or cells: HEK-293 cells stably expressing human STIM1 and human Orai1
Experimental: A. Fluorescence-Based Assay of Store-Operated Calcium Entry in Orai1/Stim1 Stable Cells.
Cells stably expressing recombinant human STIM1 and Orai1 are generated by transfecting a human Orai1 expression plasmid (pcDNA3.1-Orai1-cmyc) into HEK-293 cells stably overexpressing human STIM1 (Roos et al. 2005 JCB 169(3): 435-445). Colonies of cells stably expressing both STIM1 and Orai1 proteins are selected and then subcloned by limiting dilution. Cells were cultured at 37° C./6% CO2 in complete medium with 10% FBS and appropriate selection markers.
The day prior to performing the assay Orai1/STIM1 stable cells are plated in 50 μL of complete medium at 90-95% confluence in a 384 well plate. Cells are grown at 37° C./6% CO2 overnight. On the day of the assay, 1.5 μM fluo-4-AM (Invitrogen) in complete medium is added to the cells, which are then incubated for 1 hour at RT. Cells are washed once in Ca^2+-free HBSS (Hank's buffered saline solution) and 35 μl of Ca^2+-free HBSS is added to each well. Test compounds are added to wells in a 10 μL Ca^2+-free HBSS solution, prepared at 4.5× the desired final concentration, and incubated for 30 minutes at RT. The initial baseline fluorescence signal is then measured with a FLIPR^384 (Molecular Devices) plate reader. Calcium entry is initiated by adding 5 μl of 10×CaCl2 (10 mM) in HBSS, and changes in cellular fluorescence are measured with the FLIPR^384 plate reader. In each well, the magnitude of the fluorescence signal as a result of calcium entry into the cell is determined by calculating the difference between the peak fluorescence signal measured after calcium addition and the initial baseline fluorescence signal (designated Peak-Basal). IC50 values are typically calculated as the concentration that inhibited 50% of the Peak-Basal signal.

[3] = system: RBL-2H3 cells; test: Fluorescence-based assay of store-operated calcium entry in RBL-2H3 cells (FLIPR, thapsigargin); format: cell-based, rat; conditions: Fluo-4, Upslope 0-7 sec, read-out: FLIPR_CRAC: 9 pt CRC - Fluo4_TG-D: RBL-2H3: IC50: Upslope 0-7 sec
Experimental: B. Fluorescence-Based Assay of Store-Operated Calcium Entry in RBL-2H3 Cells.
RBL-2H3 cells are obtained from ATCC and maintained in complete medium with 10% FBS at 37° C./6% CO2.
The day prior to performing the assay, RBL-2H3 cells are plated in 50 μl of complete medium in a 384 well plate. Cells are grown at 37° C./6% CO2 overnight and grow to 50-60% confluence by the next day. On the assay day, 1.5 μM Fluo-4-AM dye (Invitrogen) in complete medium is added and incubated for 1 hour at RT. Cells are washed twice in Ca^2+-free HBSS buffer and 35 μl Ca^2+-free HBSS buffer is added to each well. 10 μl of a test compound prepared in a Ca^2+-free HBSS solution at 4.5× of the desired concentration is added to a well and incubated for 5 minutes at RT. 10 μl of thapsigargin prepared in a Ca^2+-free HBSS solution at 5.5× of the desired concentration (5.5 uM) is added to each well and incubated for an additional 25 minutes. The initial baseline fluorescence signal is measured with a FLIPR^384 (Molecular Devices) plate reader. 5 μl of 12× calcium in HBSS (12 mM) is added and changes in cellular fluorescence are measured with the FLIPR^384 plate reader. In each well, the change in the fluorescent signal as a function of time due to calcium entry into the cell is determined by calculating the difference between the fluorescent signal measured 7 seconds after calcium addition and the initial baseline fluorescence signal at time zero (t=0). This parameter is designated Upslope. The IC50 value is calculated as the concentration at which 50% of the Upslope is inhibited.

T1 sequence (Q96D31 whole entry): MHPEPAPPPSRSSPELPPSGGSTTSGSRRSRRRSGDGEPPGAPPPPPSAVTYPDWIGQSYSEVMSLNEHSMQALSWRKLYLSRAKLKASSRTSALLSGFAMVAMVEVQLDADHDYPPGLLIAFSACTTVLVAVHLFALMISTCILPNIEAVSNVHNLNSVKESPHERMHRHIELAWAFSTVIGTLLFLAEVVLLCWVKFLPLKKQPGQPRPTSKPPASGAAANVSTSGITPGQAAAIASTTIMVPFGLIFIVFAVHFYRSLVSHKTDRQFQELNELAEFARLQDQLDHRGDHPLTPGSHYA

SMILES | IC50 ([1]; Homo sapiens) [nM] | IC50 [2] [nM] | IC50 ([3]; Rattus norvegicus) [nM] | IC50 [1] [nM] | IC50 [3] [nM]
O=C(Nc1c(F)cccc1F)c1ccc(-c2cc3scnc3cc2Cl)s1 [Example 7, N-(2,6-difluorophenyl)[5-(5-chlorobenzothiazol-6-yl)(2-thienyl)]carboxamide] | < 50 | < 600 | < 600 | – | –
Cc1cc2c(C)noc2cc1-c1ccc(C(=O)Nc2c(F)cccc2F)s1 [Example 10, N-(2,6-difluorophenyl)[5-(3,5-dimethylbenzo[d]isoxazol-6-yl)(2-thienyl)]carboxamide] | < 50 | < 600 | < 600 | – | –
Cn1nc(-c2ccccc2)cc1-c1ccc(C(=O)Nc2c(F)cccc2F)s1 [Example 42, N-(2,6-difluorophenyl)[5-(1-methyl-3-phenylpyrazol-5-yl](2-thienyl)}carboxamide] | < 50 | < 600 | < 600 | – | –
Cc1cc2c(cc1-c1cnc(NC(=O)c3ccncc3F)s1)OC(F)(F)O2 [Example 82] | < 50 | < 600 | < 600 | – | –
Cn1nc(-c2ccco2)cc1-c1ccc(C(=O)Nc2c(F)cccc2F)s1 [Example 56, N-(2,6-difluorophenyl)[5-(3-(2-furyl)-1-methylpyrazol-5-yl](2-thienyl)]carboxamide] | < 50 | < 600 | < 600 | – | –
Cn1nc(-c2ccccc2F)cc1-c1ccc(C(=O)Nc2ccccc2Cl)s1 [Example 41] | > 100 | < 600 | < 600 | – | –
Cc1cc2scnc2cc1-c1ccc(C(=O)Nc2c(F)cccc2F)s1 [Example 4, N-(2,6-difluorophenyl)[5-(6-methylbenzothiazol-5-yl)(2-thienyl)]carboxamide] | < 50 | < 600 | < 600 | – | –
Cc1nc(-c2cc(-c3cnc(NC(=O)c4ccccc4Cl)s3)n(C)n2)no1 [Example 48] | – | < 600 | – | > 100 | 600 to 1200
Cn1nc(-c2ccccc2)cc1-c1ccc(C(=O)Nc2ncc(Cl)cc2F)s1 [Example 46] | < 50 | < 600 | < 600 | – | –
Cc1nc2cc(Cl)c(-c3cnc(NC(=O)c4ccccc4Cl)s3)cc2o1 [Example 19, N-[5-(5-chloro-2-methybenzoxazol-6-yl)(1,3-thiazol-2-yl)](2-chlorophenyl)carboxamide] | 50 to 100 | < 600 | < 600 | – | –
Cc1nc2cc(Cl)c(-c3ccc(C(=O)Nc4c(F)cccc4F)s3)cc2o1 [Example 3, [5-(5-chloro-2-methylbenzoxazol-6-yl)(2-thienyl)]-N-(2,6-difluorophenyl)carboxamide] | < 50 | < 600 | < 600 | – | –
Cn1nc(C(F)(F)F)cc1-c1cnc(NC(=O)c2c(F)cccc2F)s1 [Example 28, (2,6-difluorophenyl)-N-{5-[1-methyl-3-(trifluoromethyl)pyrazol-5-yl](1,3-thiazol-2-yl)}carboxamide] | < 50 | < 600 | < 600 | – | –
Cn1nc(C(F)(F)F)cc1-c1cnc(NC(=O)c2ccccc2Cl)s1 [Example 27, (2-chlorophenyl)-N-{5-[1-methyl-3-(trifluoromethyl)pyrazol-5-yl](1,3-thiazol-2-yl)}carboxamide] | < 50 | < 600 | < 600 | – | –
Cc1cc2c(cc1-c1cnc(NC(=O)c3c(F)cccc3F)s1)OC(F)(F)O2 [Example 83, (2,6-difluorophenyl)-N-[5-(2,2-difluoro-6-methylbenzo[d]1,3-dioxolen-5-yl)(1,3-thiazol-2-yl)]carboxamide] | < 50 | > 1200 | < 600 | – | –
Cc1cc2c(cc1-c1cnc(NC(=O)c3ccccc3F)s1)OC(F)(F)O2 [Example 84] | < 50 | < 600 | < 600 | – | –
Cn1nc(C(F)(F)F)cc1-c1ccc(NC(=O)c2c(F)cccc2F)s1 [Example 74, (2,6-difluorophenyl)-N-{5-[1-methyl-3-(trifluoromethyl)pyrazol-5-yl](2-thienyl)}carboxamide] | < 50 | < 600 | < 600 | – | –
Cn1nc(-c2nccs2)cc1-c1ccc(C(=O)Nc2ccccc2Cl)s1 [Example 55] | < 50 | < 600 | < 600 | – | –
CCn1nc(C(F)(F)F)cc1-c1cnc(NC(=O)c2ccccc2Cl)s1 [Example 24, (2-chlorophenyl)-N-{5-[1-ethyl-3-(trifluoromethyl)pyrazol-5-yl](1,3-thiazol-2-yl)}carboxamide] | < 50 | 600 to 1200 | < 600 | – | –

More lines, main results first:

IC50 ([1]; Homo sapiens) [nM] | IC50 [2] [nM] | IC50 ([3]; Rattus norvegicus) [nM] | SMILES | IC50 [1] [nM] | IC50 [3] [nM]
< 50 | < 600 | < 600 | Cc1cc2cn(C)nc2cc1-c1ccc(C(=O)Nc2ccccc2F)s1 [Example 13] | – | –
< 50 | < 600 | < 600 | Cc1nc2cc(Cl)c(-c3ccc(C(=O)Nc4ccccc4Cl)s3)cc2o1 [Example 1, [5-(5-chloro-2-methylbenzoxazol-6-yl)(2-thienyl)]-N-(2-chlorophenyl)carboxamide] | – | –
< 50 | < 600 | < 600 | Cc1cc2c(C)noc2cc1-c1ccc(C(=O)Nc2ccccc2F)s1 [Example 11, [5-(3,5-dimethylbenzo[d]isoxazol-6-yl)(2-thienyl)]-N-(2-fluorophenyl)carboxamide] | – | –
< 50 | < 600 | < 600 | Cc1cc2scnc2cc1-c1ccc(C(=O)Nc2ccccc2Cl)s1 [Example 6, N-(2-chlorophenyl)[5-(6-methylbenzothiazol-5-yl)(2-thienyl)]carboxamide] | – | –
< 50 | < 600 | < 600 | Cn1nc(-c2ccco2)cc1-c1ccc(C(=O)Nc2ccccc2F)s1 [Example 61] | – | –
< 50 | < 600 | < 600 | Cc1nc2cc(Cl)c(-c3ccc(C(=O)Nc4ccccc4F)s3)cc2o1 [Example 2, [5-(5-chloro-2-methylbenzoxazol-6-yl)(2-thienyl)]-N-(2-fluorophenyl)carboxamide] | – | –
< 50 | < 600 | < 600 | Cc1cc2scnc2cc1-c1ccc(C(=O)Nc2ccccc2F)s1 [Example 5, N-(2-fluorophenyl)[5-(6-methylbenzothiazol-5-yl)(2-thienyl)]carboxamide] | – | –
< 50 | < 600 | < 600 | O=C(Nc1ccccc1F)c1ccc(-c2cc3scnc3cc2Cl)s1 [Example 9, [5-(5-chlorobenzothiazol-6-yl)(2-thienyl)]-N-(2-fluorophenyl)carboxamide] | – | –
